Values joined by “and” are separate entries in the source; they are usually repeats but may differ in a detail not shown here. Equal values may be shown once. Toxic doses and inconclusive results are not listed.

In this test the test system is BDF1 mice, P388 leukemia ip, median survival T/C. Put plainly: NCI In Vivo Anticancer Drug Screen. Data for tumor model P388 Leukemia (intraperitoneal) in B6D2F1 (BDF1) mice. The note with it: endpoint: median survival time, higher = longer survival. The gist of the method:
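In tumour-bearing mice, survival after compound treatment is set against the vehicle group and given as a quotient.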

The mark [1] stands for this setting: dose: 100.0 mg/kg/injection, schedule: Q01DX009 (ip), vehicle: saline with Tween-80.
[2] abbreviates: dose: 50.0 mg/kg/injection, schedule: Q01DX009 (ip), vehicle: saline with Tween-80.
[3] abbreviates: dose: 200.0 mg/kg/injection, schedule: Q01DX009 (ip), vehicle: saline with Tween-80.
Where [4] appears, read: dose: 25.0 mg/kg/injection, schedule: Q01DX009 (ip), vehicle: water.
Setting [5] is: dose: 50.0 mg/kg/injection, schedule: Q01DX009 (ip), vehicle: water.
Setting [6] is: dose: 200.0 mg/kg/injection, schedule: Q04DX003 (ip), vehicle: water.
Setting [7] is: dose: 50.0 mg/kg/injection, schedule: Q01DX005 (ip), vehicle: saline with Tween-80.

As for `Cc1cc(-c2ccccc2)c2ccccc2c1N(CC(=O)O)S(=O)(=O)c1ccccc1`, the T/C is, setting by setting: (dose: 44.0 mg/kg/injection, schedule: Q01DX009 (ip), vehicle: saline with Tween-80) 95 % of control and 105 % of control; (dose: 66.0 mg/kg/injection, schedule: Q01DX009 (ip), vehicle: saline with Tween-80) 110 % of control; under setting [1], 95 % of control and 120 % of control; (dose: 150.0 mg/kg/injection, schedule: Q01DX009 (ip), vehicle: saline with Tween-80) 121 % of control.

On to `C/C(=C\c1ccc(N(C)C)cc1C)[N+](=O)[O-]`, for which the T/C runs as follows: under setting [2], 116 % of control and 118 % of control; under setting [1], 114 % of control and 124 % of control; under setting [3], 122 % of control.

Regarding `CNC(=S)N/N=C(/C)CCc1c(C)nn(C(=S)NC)c1C`, the T/C runs as follows: (dose: 150.0 mg/kg/injection, schedule: Q04DX003 (ip), vehicle: Klucel (hydroxypropylcellulose) (HPC)) 112 % of control; (dose: 225.0 mg/kg/injection, schedule: Q04DX003 (ip), vehicle: Klucel (hydroxypropylcellulose) (HPC)) 112 % of control; (dose: 335.0 mg/kg/injection, schedule: Q04DX003 (ip), vehicle: Klucel (hydroxypropylcellulose) (HPC)) 108 % of control.

For the molecule `C/C(=C\C(=O)O)CC(=O)O`, the T/C reads like this: under setting [4], 109 % of control; under setting [5], 95 % of control; (dose: 50.0 mg/kg/injection, schedule: Q04DX003 (ip), vehicle: water) 92 % of control; (dose: 100.0 mg/kg/injection, schedule: Q01DX009 (ip), vehicle: water) 99 % of control; (dose: 100.0 mg/kg/injection, schedule: Q04DX003 (ip), vehicle: water) 99 % of control and 108 % of control; (dose: 200.0 mg/kg/injection, schedule: Q01DX009 (ip), vehicle: water) 101 % of control. The T/C under setting [6] is 104 % of control and 110 % of control.

On to `CCCC(NC(=O)OCc1ccccc1)C(=O)O` (stereo not drawn), for which the T/C under setting [1] is 105 % of control and the T/C under setting [3] is 105 % of control.

For the molecule `C=C1C(=O)OC2CC(C)CCC/C(CO)=C/C(OC(=O)/C(=C/CO)CO)C12` (stereo not drawn), the T/C runs as follows: (dose: 3.5 mg/kg/injection, schedule: Q01DX009 (ip), vehicle: saline) 104 % of control; (dose: 7.0 mg/kg/injection, schedule: Q01DX009 (ip), vehicle: saline) 108 % of control.

`C1OCN2CSCC12` (stereo not drawn): the T/C reads like this: (dose: 100.0 mg/kg/injection, schedule: Q04DX002 (ip), vehicle: suspension in saline) 110 % of control; (dose: 600.0 mg/kg/injection, schedule: Q04DX002 (ip), vehicle: suspension in saline) 117 % of control.

On to `Cc1cc(O)c2c(c1)C(c1ccc3cc4c(c(O)c3c1O)C(=O)CC(C)(O)C4)c1cccc(O)c1C2=O` (stereo not drawn), for which the T/C is 102 % of control (dose: 0.09 mg/kg/injection, schedule: Q01DX009 (ip), vehicle: olive oil, sesame oil, peanut oil); 100 % of control (dose: 0.19 mg/kg/injection, schedule: Q01DX009 (ip), vehicle: olive oil, sesame oil, peanut oil); 102 % of control (dose: 0.39 mg/kg/injection, schedule: Q01DX009 (ip), vehicle: olive oil, sesame oil, peanut oil); 106 % of control (dose: 0.78 mg/kg/injection, schedule: Q01DX009 (ip), vehicle: olive oil, sesame oil, peanut oil).

As to `CC(=O)N(CCN(Cc1ccc(Oc2ccc([N+](=O)[O-])cc2[N+](=O)[O-])cc1)C(C)=O)CCN(Cc1ccc(Oc2ccc([N+](=O)[O-])cc2[N+](=O)[O-])cc1)C(C)=O`, the T/C is 94 % of control (dose: 25.0 mg/kg/injection, schedule: Q01DX009 (ip), vehicle: other); 103 % of control (dose: 50.0 mg/kg/injection, schedule: Q01DX009 (ip), vehicle: other); 100 % of control (dose: 100.0 mg/kg/injection, schedule: Q01DX009 (ip), vehicle: other); 94 % of control (dose: 200.0 mg/kg/injection, schedule: Q01DX009 (ip), vehicle: other); 103 % of control (dose: 400.0 mg/kg/injection, schedule: Q01DX009 (ip), vehicle: other).

On to `CCC(C)C1NC(=O)C(NC(=O)c2c3nc4c(C(=O)NC5C(=O)NC(C(C)CC)C(=O)N6CCCC6C(=O)N(C)CC(=O)N(C)C(C(C)C)C(=O)OC5C)cc([N+](=O)[O-])c(C)c4oc-3c(C)c(=O)c2N)C(C)OC(=O)C(C(C)C)N(C)C(=O)CN(C)C(=O)C2CCCN2C1=O` (stereo not drawn), for which the T/C is, setting by setting: (dose: 0.15 mg/kg/injection, schedule: Q04DX003 (ip), vehicle: saline + alcohol) 197 % of control; (dose: 0.3 mg/kg/injection, schedule: Q04DX003 (ip), vehicle: saline + alcohol) 157 % of control and 216 % of control; (dose: 0.6 mg/kg/injection, schedule: Q04DX003 (ip), vehicle: saline + alcohol) 229 % of control and 221 % of control; (dose: 1.2 mg/kg/injection, schedule: Q04DX003 (ip), vehicle: saline + alcohol) 270 % of control and 177 % of control; (dose: 2.4 mg/kg/injection, schedule: Q04DX003 (ip), vehicle: saline + alcohol) 116 % of control; (dose: 50.0 micrograms/kg/injection, schedule: Q01DX009 (ip), vehicle: saline + alcohol) 173 % of control. The T/C is 197 % of control (dose: 100.0 micrograms/kg/injection, schedule: Q01DX009 (ip), vehicle: saline + alcohol); 312 % of control (dose: 200.0 micrograms/kg/injection, schedule: Q01DX009 (ip), vehicle: saline + alcohol); 118 % of control (dose: 400.0 micrograms/kg/injection, schedule: Q01DX009 (ip), vehicle: saline + alcohol).

For the molecule `COc1cc(C=Nc2cccc(C(F)(F)F)c2)ccc1O`, the T/C (dose: 100.0 mg/kg/injection, schedule: Q04DX003 (ip), vehicle: Klucel (hydroxypropylcellulose) (HPC)) is 95 % of control and the T/C (dose: 200.0 mg/kg/injection, schedule: Q04DX003 (ip), vehicle: Klucel (hydroxypropylcellulose) (HPC)) was 100 % of control.

Consider `c1ccc(-c2nnn(-c3ccccc3)n2)cc1`, for which the T/C is 93 % of control under setting [2] and 93 % of control under setting [3].

Consider `FC(F)(F)COP1SCCS1`, for which the T/C (dose: 25.0 mg/kg/injection, schedule: Q01DX005 (ip), vehicle: saline with Tween-80) was 97 % of control and the T/C under setting [7] is 97 % of control.

For the molecule `NC(=O)c1ncc[nH]c1=O`, the T/C is 100 % of control (dose: 50.0 mg/kg/injection, schedule: Q04DX003 (ip), vehicle: saline with Tween-80); 100 % of control (dose: 100.0 mg/kg/injection, schedule: Q04DX003 (ip), vehicle: saline with Tween-80); 105 % of control (dose: 200.0 mg/kg/injection, schedule: Q04DX003 (ip), vehicle: saline with Tween-80).

As for `CC[Se](CC)CC.CC[Se](CC)CC.C[CH2][Ge]([CH2]C)[O][Ge]([CH2]C)[CH2]C`, under setting [1], the T/C is 107 % of control.

For the molecule `Cn1cnc([N+](=O)[O-])c1S(=O)(=O)NCN1CCOCC1`, the T/C (dose: 12.5 mg/kg/injection, schedule: Q01DX009 (ip), vehicle: Klucel (hydroxypropylcellulose) (HPC)) is 118 % of control; the T/C (dose: 50.0 mg/kg/injection, schedule: Q01DX009 (ip), vehicle: Klucel (hydroxypropylcellulose) (HPC)) was 121 % of control; the T/C (dose: 100.0 mg/kg/injection, schedule: Q01DX009 (ip), vehicle: Klucel (hydroxypropylcellulose) (HPC)) is 116 % of control.

As to `CC1(C)COC(c2ccc(CC(Cc3ccc(C4(C(C)(C)C)OCC(C)(C)CO4)cc3)C(=O)O)cc2)(C(C)(C)C)OC1`, the T/C is 86 % of control under setting [7]; 93 % of control (dose: 100.0 mg/kg/injection, schedule: Q01DX005 (ip), vehicle: saline with Tween-80); 96 % of control (dose: 200.0 mg/kg/injection, schedule: Q01DX005 (ip), vehicle: saline with Tween-80).

Regarding `CC1(C)CC(=O)C=C(NC2CCCCC2)C1`, the T/C (dose: 50.0 mg/kg/injection, schedule: Q04DX003 (ip), vehicle: saline sonified) is 90 % of control; the T/C (dose: 100.0 mg/kg/injection, schedule: Q04DX003 (ip), vehicle: saline sonified) is 109 % of control; the T/C (dose: 200.0 mg/kg/injection, schedule: Q04DX003 (ip), vehicle: saline sonified) is 100 % of control.

Take `c1ccc(-c2cc[s+]s2)cc1`: the T/C is 110 % of control and 114 % of control (dose: 3.12 mg/kg/injection, schedule: Q01DX009 (ip), vehicle: water); 94 % of control and 103 % of control and 120 % of control (dose: 6.25 mg/kg/injection, schedule: Q01DX009 (ip), vehicle: water); 100 % of control and 103 % of control and 123 % of control (dose: 12.5 mg/kg/injection, schedule: Q01DX009 (ip), vehicle: water); 116 % of control (dose: 12.5 mg/kg/injection, schedule: Q04DX003 (ip), vehicle: water); 100 % of control under setting [4]; 104 % of control (dose: 25.0 mg/kg/injection, schedule: Q04DX003 (ip), vehicle: water). The T/C by setting is: under setting [5], 92 % of control and 116 % of control; under setting [6], 101 % of control.

These data come from PubChem BioAssay AID328 (DTP/NCI, 2004).
